Test results reported in article PMC10518257 (Nature Cancer, 2023).

Assays:
[1] = biological target: T1, panel of 255 (vepafestinib) or 256 (all other inhibitors) recombinant kinases (Homo sapiens, UniProt O60674); assay: Kinase selectivity profiling at a single concentration (Carna Biosciences); type: biochemical; conditions: 17 nM
T1 construct: purchased Carna Biosciences

[2] = biological target: T2, panel of 255 (vepafestinib) or 256 (all other inhibitors) recombinant kinases (Homo sapiens, UniProt P04629); assay: as above; type: biochemical; conditions: 17 nM
T2 construct: purchased Carna Biosciences

[3] = biological target: T3, panel of 255 (vepafestinib) or 256 (all other inhibitors) recombinant kinases (Homo sapiens, UniProt P07333); assay: as above; type: biochemical; conditions: 17 nM
T3 construct: purchased Carna Biosciences
T3 sequence (P07333 20-972): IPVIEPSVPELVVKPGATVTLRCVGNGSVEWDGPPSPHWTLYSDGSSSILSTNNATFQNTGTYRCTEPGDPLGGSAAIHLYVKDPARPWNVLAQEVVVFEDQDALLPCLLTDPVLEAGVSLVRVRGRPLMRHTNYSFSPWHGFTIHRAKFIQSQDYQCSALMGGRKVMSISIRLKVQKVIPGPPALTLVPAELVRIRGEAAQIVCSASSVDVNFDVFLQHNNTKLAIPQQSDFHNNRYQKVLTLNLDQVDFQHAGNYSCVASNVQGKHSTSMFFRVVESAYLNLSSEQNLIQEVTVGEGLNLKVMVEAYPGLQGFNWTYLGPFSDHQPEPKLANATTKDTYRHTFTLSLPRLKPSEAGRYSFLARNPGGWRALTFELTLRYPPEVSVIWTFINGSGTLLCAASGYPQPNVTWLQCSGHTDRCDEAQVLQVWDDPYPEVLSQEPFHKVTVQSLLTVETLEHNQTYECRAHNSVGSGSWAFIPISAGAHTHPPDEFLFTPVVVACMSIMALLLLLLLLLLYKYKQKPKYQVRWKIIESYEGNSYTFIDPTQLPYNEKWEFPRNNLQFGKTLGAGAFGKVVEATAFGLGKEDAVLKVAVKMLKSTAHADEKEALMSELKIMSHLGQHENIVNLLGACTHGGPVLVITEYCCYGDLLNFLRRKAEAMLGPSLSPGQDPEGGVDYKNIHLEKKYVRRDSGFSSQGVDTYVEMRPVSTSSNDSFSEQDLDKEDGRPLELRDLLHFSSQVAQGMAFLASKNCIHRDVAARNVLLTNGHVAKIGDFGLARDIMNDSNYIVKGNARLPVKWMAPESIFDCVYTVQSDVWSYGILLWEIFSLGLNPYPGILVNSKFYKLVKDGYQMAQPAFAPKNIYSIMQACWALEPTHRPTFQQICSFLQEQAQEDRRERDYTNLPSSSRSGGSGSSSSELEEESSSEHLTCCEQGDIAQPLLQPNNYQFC

[4] = biological target: T4, panel of 255 (vepafestinib) or 256 (all other inhibitors) recombinant kinases (Homo sapiens, UniProt P07947); assay: as above; type: biochemical; conditions: 17 nM
T4 construct: purchased Carna Biosciences
T4 sequence (P07947 whole entry): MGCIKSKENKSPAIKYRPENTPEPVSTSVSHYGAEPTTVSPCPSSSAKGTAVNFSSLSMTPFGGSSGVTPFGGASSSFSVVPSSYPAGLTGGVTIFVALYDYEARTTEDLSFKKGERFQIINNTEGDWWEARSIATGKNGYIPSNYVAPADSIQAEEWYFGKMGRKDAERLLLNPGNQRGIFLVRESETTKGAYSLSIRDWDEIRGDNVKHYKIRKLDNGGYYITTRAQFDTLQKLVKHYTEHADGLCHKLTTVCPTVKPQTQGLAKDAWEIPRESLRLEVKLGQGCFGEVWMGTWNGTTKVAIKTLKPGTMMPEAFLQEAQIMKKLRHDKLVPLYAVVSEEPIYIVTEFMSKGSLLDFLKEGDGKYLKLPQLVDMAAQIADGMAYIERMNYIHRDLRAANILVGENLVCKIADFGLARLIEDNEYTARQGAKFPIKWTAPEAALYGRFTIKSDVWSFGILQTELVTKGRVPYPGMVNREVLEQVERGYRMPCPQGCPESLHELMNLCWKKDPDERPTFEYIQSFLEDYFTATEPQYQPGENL

[5] = biological target: T5, panel of 255 (vepafestinib) or 256 (all other inhibitors) recombinant kinases (Homo sapiens, UniProt P08922); assay: as above; type: biochemical; conditions: 17 nM
T5 construct: purchased Carna Biosciences

[6] = biological target: T6, panel of 255 (vepafestinib) or 256 (all other inhibitors) recombinant kinases (Homo sapiens, UniProt P12931); assay: as above; type: biochemical; conditions: 17 nM
T6 construct: purchased Carna Biosciences

[7] = biological target: T7, panel of 255 (vepafestinib) or 256 (all other inhibitors) recombinant kinases (Homo sapiens, UniProt P23458); assay: as above; type: biochemical; conditions: 17 nM
T7 construct: purchased Carna Biosciences

[8] = biological target: T8, panel of 255 (vepafestinib) or 256 (all other inhibitors) recombinant kinases (Homo sapiens, UniProt P52333); assay: as above; type: biochemical; conditions: 17 nM
T8 construct: purchased Carna Biosciences

[9] = biological target: T9, panel of 255 (vepafestinib) or 256 (all other inhibitors) recombinant kinases (Homo sapiens, UniProt P29376); assay: as above; type: biochemical; conditions: 23 nM
T9 construct: purchased Carna Biosciences

[10] = biological target: T10, panel of 255 (vepafestinib) or 256 (all other inhibitors) recombinant kinases (Homo sapiens, UniProt P31749); assay: as above; type: biochemical; conditions: 23 nM
T10 construct: purchased Carna Biosciences

[11] = biological target: T11, panel of 255 (vepafestinib) or 256 (all other inhibitors) recombinant kinases (Homo sapiens, UniProt Q13177); assay: as above; type: biochemical; conditions: 23 nM
T11 construct: purchased Carna Biosciences

[12] = biological target: T12, panel of 255 (vepafestinib) or 256 (all other inhibitors) recombinant kinases (Homo sapiens, UniProt Q15303); assay: as above; type: biochemical; conditions: 23 nM
T12 construct: purchased Carna Biosciences

[13] = biological target: T13, panel of 255 (vepafestinib) or 256 (all other inhibitors) recombinant kinases (Homo sapiens, UniProt Q15759); assay: as above; type: biochemical; conditions: 23 nM
T13 construct: purchased Carna Biosciences
T13 sequence (Q15759 whole entry): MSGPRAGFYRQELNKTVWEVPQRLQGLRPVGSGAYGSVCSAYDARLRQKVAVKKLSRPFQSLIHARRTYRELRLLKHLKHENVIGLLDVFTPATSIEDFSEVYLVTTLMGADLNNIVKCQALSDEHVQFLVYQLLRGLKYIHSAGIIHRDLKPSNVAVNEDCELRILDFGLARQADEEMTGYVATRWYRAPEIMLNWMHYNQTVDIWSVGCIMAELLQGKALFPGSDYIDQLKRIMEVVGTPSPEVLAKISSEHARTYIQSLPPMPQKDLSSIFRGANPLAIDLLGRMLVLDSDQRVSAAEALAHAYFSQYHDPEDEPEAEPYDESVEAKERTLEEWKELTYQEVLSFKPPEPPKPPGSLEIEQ

[14] = biological target: T14, panel of 255 (vepafestinib) or 256 (all other inhibitors) recombinant kinases (Homo sapiens, UniProt Q7KZI7); assay: as above; type: biochemical; conditions: 23 nM
T14 construct: purchased Carna Biosciences

[15] = biological target: T15, panel of 255 (vepafestinib) or 256 (all other inhibitors) recombinant kinases (Homo sapiens, UniProt Q9NQU5); assay: as above; type: biochemical; conditions: 23 nM
T15 construct: purchased Carna Biosciences
T15 sequence (Q9NQU5 whole entry): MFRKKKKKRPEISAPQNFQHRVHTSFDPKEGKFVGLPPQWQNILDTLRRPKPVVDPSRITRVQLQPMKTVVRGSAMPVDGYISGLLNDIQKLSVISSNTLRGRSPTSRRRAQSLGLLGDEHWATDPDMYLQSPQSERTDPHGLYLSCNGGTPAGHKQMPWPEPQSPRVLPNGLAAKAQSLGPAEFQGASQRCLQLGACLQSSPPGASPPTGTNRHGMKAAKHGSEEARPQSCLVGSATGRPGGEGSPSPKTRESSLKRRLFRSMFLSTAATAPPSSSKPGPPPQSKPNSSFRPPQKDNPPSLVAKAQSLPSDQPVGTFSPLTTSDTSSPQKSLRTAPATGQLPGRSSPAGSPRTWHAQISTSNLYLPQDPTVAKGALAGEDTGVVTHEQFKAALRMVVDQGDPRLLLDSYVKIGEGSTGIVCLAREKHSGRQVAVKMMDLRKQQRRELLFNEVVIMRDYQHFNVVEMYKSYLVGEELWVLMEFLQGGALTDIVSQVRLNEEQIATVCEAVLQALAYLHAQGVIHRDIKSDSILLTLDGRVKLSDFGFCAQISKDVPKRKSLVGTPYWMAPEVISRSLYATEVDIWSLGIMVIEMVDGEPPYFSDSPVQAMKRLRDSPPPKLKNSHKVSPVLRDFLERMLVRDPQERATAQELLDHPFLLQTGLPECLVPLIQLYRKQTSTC

[16] = biological target: T16, panel of 255 (vepafestinib) or 256 (all other inhibitors) recombinant kinases (Homo sapiens, UniProt Q9P0L2); assay: as above; type: biochemical; conditions: 23 nM
T16 construct: purchased Carna Biosciences

[17] = biological target: T17, panel of 255 (vepafestinib) or 256 (all other inhibitors) recombinant kinases (Homo sapiens, UniProt Q9Y6E0); assay: as above; type: biochemical; conditions: 23 nM
T17 construct: purchased Carna Biosciences
T17 sequence (Q9Y6E0 whole entry): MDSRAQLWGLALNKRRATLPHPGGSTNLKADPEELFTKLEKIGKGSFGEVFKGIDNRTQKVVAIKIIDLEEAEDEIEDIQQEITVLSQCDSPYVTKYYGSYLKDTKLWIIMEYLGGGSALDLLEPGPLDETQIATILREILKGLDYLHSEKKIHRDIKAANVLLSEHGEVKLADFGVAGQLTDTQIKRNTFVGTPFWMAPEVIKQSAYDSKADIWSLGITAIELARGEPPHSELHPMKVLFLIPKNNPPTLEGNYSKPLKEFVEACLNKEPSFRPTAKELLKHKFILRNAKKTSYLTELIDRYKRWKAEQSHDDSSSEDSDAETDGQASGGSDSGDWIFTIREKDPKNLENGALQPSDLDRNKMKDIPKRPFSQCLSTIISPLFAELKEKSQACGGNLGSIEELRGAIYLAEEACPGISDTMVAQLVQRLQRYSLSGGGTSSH

[18] = test system: RET phosphorylation at Y905 and Y1062 and downstream effectors; assay: Western blotting of serum-starved LUAD-0002AS1, ECLC5B and TT cells, 2 h; type: cell-based, human; conditions: 50 nM
Experimental: Serum-starved cells were treated with 5, 50 or 500 nM inhibitor for 2 h, and then protein phosphorylation levels were examined (Fig. 3a). […] We performed additional dose–response western blotting studies using lower inhibitor concentrations. Immunoblots were quantitated by densitometry, and the EC50 for phosphorylation inhibition was estimated (Extended Data Fig. 4). […] Quantitation of immunoblots is shown in Extended Data Fig. 4c,d.
Following treatment, whole-cell extracts were prepared and subjected to western blotting analysis. Representative immunoblots from two independent experiments are shown. GAPDH was used as a loading control. RSK, ribosomal protein S6 kinase; S6RP, S6 ribosomal protein. b,c, Cells were plated in 96-well plates and treated for 96 h with the inhibitors shown. The number of viable cells was assessed using alamarBlue. b, Viability curves for control HBEC cells (HBECp53-EV) and HBEC cells with the CCDC6-RET fusion (HBECp53-RET) are shown at the left. […] Data were analyzed by non-linear regression, and IC50 values were estimated by curve fitting. […]
See Supplementary Table 4 for a complete list of antibodies and dilutions used. […] The bands of the target proteins were detected with SuperSignal West Dura Extended Duration Substrate (Thermo Fisher Scientific) by the Amersham Imager 600 QC (Cytiva) or exposed to X-ray film and visualized using a Kodak X-ray developer.

[19] = biological target: T18, panel of 255 (vepafestinib) or 256 (all other inhibitors) recombinant kinases (Homo sapiens, UniProt P30530); assay: Kinase selectivity profiling at a single concentration (Carna Biosciences); type: biochemical; conditions: 22 nM
T18 construct: purchased Carna Biosciences
T18 sequence (P30530 26-894): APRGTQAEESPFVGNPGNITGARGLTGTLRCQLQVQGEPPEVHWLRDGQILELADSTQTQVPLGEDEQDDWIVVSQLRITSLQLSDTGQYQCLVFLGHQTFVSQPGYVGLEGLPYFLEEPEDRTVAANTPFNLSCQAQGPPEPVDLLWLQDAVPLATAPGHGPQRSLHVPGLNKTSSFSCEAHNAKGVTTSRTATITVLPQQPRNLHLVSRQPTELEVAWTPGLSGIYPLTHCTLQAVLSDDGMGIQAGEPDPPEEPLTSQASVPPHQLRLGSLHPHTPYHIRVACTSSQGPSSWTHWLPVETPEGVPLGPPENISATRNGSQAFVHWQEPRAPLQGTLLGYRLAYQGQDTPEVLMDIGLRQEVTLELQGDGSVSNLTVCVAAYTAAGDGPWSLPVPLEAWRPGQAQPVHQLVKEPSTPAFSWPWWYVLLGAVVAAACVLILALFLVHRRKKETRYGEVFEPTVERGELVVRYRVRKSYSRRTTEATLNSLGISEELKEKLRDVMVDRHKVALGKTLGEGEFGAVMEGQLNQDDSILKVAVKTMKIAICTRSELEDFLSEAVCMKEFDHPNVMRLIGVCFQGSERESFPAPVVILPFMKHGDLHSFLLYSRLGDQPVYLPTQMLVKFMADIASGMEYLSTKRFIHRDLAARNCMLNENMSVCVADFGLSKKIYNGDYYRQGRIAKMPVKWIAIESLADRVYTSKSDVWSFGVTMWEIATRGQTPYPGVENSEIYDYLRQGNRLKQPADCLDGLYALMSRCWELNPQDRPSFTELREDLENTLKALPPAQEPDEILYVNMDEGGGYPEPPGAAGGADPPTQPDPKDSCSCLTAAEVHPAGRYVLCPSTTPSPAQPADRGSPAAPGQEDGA

[20] = biological target: T19, panel of 255 (vepafestinib) or 256 (all other inhibitors) recombinant kinases (Homo sapiens, UniProt P41743); assay: as above; type: biochemical; conditions: 22 nM
T19 construct: purchased Carna Biosciences

[21] = biological target: T20, panel of 255 (vepafestinib) or 256 (all other inhibitors) recombinant kinases (Homo sapiens, UniProt P54762); assay: as above; type: biochemical; conditions: 22 nM
T20 construct: purchased Carna Biosciences

[22] = biological target: T21, panel of 255 (vepafestinib) or 256 (all other inhibitors) recombinant kinases (Homo sapiens, UniProt Q9UF33); assay: as above; type: biochemical; conditions: 22 nM
T21 construct: purchased Carna Biosciences

T1 sequence (O60674 whole entry): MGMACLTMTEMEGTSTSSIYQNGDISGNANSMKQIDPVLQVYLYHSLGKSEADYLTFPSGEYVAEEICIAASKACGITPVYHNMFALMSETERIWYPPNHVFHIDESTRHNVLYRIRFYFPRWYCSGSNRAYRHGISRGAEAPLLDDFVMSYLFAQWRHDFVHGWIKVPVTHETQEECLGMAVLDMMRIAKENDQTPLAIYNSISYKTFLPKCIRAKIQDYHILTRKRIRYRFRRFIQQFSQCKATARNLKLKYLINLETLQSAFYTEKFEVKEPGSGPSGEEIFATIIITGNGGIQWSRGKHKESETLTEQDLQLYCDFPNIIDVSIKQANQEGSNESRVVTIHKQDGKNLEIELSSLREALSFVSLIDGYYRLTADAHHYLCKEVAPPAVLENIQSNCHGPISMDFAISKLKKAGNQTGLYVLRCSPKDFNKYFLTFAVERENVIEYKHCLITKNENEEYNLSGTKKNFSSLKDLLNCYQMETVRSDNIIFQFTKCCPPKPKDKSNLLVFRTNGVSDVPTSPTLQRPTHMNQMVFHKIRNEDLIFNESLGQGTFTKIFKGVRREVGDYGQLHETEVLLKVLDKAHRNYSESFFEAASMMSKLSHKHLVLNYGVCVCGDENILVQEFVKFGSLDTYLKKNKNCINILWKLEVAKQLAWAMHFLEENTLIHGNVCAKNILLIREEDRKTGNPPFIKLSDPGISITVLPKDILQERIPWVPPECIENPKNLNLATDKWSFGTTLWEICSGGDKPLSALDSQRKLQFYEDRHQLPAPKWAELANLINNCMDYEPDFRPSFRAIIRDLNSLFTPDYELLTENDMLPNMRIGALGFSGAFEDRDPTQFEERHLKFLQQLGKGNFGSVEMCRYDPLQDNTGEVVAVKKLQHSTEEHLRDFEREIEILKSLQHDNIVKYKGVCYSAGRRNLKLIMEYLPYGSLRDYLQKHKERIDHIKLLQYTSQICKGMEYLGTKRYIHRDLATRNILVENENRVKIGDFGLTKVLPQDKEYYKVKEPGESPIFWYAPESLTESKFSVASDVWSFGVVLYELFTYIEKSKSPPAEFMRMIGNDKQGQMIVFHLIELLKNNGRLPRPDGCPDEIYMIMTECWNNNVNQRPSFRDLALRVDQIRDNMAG

## CO[C@]1(C(=O)N[C@@H](C)c2ccc(-n3cc(F)cn3)nc2)CC[C@H](c2nc(C)cc(Nc3cc(C)[nH]n3)n2)CC1 [Pralsetinib]
[1]
  % Inhibiton JAK2: 101.5%
[2]
  % Inhibiton TRKA: 40.8%
[3]
  % Inhibiton FMS: 25.5%
[4]
  % Inhibiton YES: 37.6%
[5]
  % Inhibiton ROS: 40%
[6]
  % Inhibiton SRC: 34.5%
[7]
  % Inhibiton JAK1: 89.1%
[8]
  % Inhibiton JAK3: 72.3%

## COCc1ccc(NC(=O)c2c(C#CCN3CCOCC3)n(C3(C)CC3)c3ncnc(N)c23)cc1 [Vepafestinib, 4-amino-N-[4-(methoxymethyl)phenyl]-7-(1-methylcyclopropyl)-6-[3-(morpholin-4-yl)prop-1-yn-1-yl]-7H-pyrrolo[2,3-d]pyrimidine-5-carboxamide]
[9]
  % Inhibiton LTK: 11.3%
[10]
  % Inhibiton AKT1: 7.9%
[11]
  % Inhibiton PAK2: 19%
[12]
  % Inhibiton HER4: 9.5%
[13]
  % Inhibiton p38β: 7%
[14]
  % Inhibiton MARK2: 14.1%
[15]
  % Inhibiton PAK6: 7.4%
[16]
  % Inhibiton MARK1: 6.5%
[17]
  % Inhibiton MST3: 13.4%
[18]
  inhibition of phosphorylation of RET and downstream effectors: Near-complete inhibition

## COc1ccc(CN2C3CC2CN(c2ccc(-c4cc(OCC(C)(C)O)cn5ncc(C#N)c45)cn2)C3)cn1 [Selpercatinib]
[19]
  % Inhibiton AXL: 18.1%
[20]
  % Inhibiton PKCι: 12.7%
[21]
  % Inhibiton EPHB1: 36.2%
[22]
  % Inhibiton EPHA6: 17.3%
